Test results taken from a melting point compilation (Tetko et al.; mined from patent text by program, amines drawn as free bases though some values may be those of a salt).

Row | melting point [°C] | Compound
1 | 115 to 116 | CCC(CC)N(O)C(=O)Nc1cc(C(F)(F)F)cc(C(F)(F)F)c1
2 | 177 to 181 | COC(=O)c1cccc([N+](=O)[O-])c1CS(=O)(=O)NC(=O)Nc1nc(OC)cc(OC)n1
3 | 123 to 124 | CC(=O)Nc1c(N(C)C)cnn(C)c1=O
4 | 216 to 217 | O=S(=O)(ON=C1c2ccccc2-c2ccccc21)c1ccc(O)cc1
5 | > 250 | Cc1cccc(NC(=O)N[C@H]2C[C@@](N)(C(=O)O)[C@@H]3[C@@H](C(=O)O)[C@@H]32)c1 (relative stereo)
6 | 125 to 126 | O=C(Cc1ncc[nH]1)c1ccc2ccccc2c1
7 | > 250 | CC(C)Oc1c(-c2ccc3c(c2)[C@@H](N2Cc4ccccc4C2=O)[C@H](O)C(C)(C)O3)c(=O)c1=O (relative stereo)
8 | 257 to 259 | Cc1ccccc1C1=C(c2cccc(OCc3ccccc3)c2)OS(=O)(=O)CC1
9 | 123 to 124 | O=C1C(CCO)Oc2cc(F)ccc2N1Cc1ccccc1[N+](=O)[O-] (configuration not stated)
10 | 167 to 168 | COc1ccc(-c2ccc(-c3nc(-c4ccc(C(F)(F)F)cc4)oc3C)cc2)cc1
11 | 89 to 94 | COc1ccc(-c2nc(Cn3ccnn3)cs2)cc1
12 | 189 to 191 | COc1ccc(/C=C/C(=O)Nc2ccccc2C(=O)NCc2cn(CC(=O)Nc3ccccc3)nn2)cc1OC
13 | 122 to 124 | Cc1c(CO)c2cnnc(OCc3ccc(F)cc3)c2n1Cc1ccccc1
14 | 72 to 73 | CC(C)c1nc(C(C)C)c(CC=Cc2ccccc2)c(-c2ccc(F)cc2)c1CO
15 | 135 | Cc1c(-c2cnc(N(C)C)nc2)ssc1=S
16 | 99 to 101 | C=CCC1(CCNC(=O)C2CCC2)c2cc(OC)ccc2CCC12OCCO2 (configuration not stated)
17 | 66.2 to 67.1 | C=CCOC(=O)CCC(NC(=O)OCC1c2ccccc2-c2ccccc21)C(=O)OCc1ccccc1 (configuration not stated)
18 | 192 to 194 | CCC1c2ccc(C#N)n2-c2ccc(F)cc2N1S(=O)(=O)c1ccc(O)c(C)c1 (configuration not stated)
19 | 286 to 290 | Cn1cc2c(O)c(C(=O)c3ccccc3)cnc2n1
20 | 267 to 269 | CC(=O)Nc1ccc(C2=NN(c3nnc(C)s3)[C@H](C)Cc3cc4c(cc32)OCO4)cc1C
21 | 276 to 278 | NC(=O)c1ccccc1N=C(NC(=O)c1ccccc1)NC(=O)c1ccccc1
22 | 85 to 87 | CSc1ccc(-c2c(Br)cnn2-c2ccc(F)cc2)cc1
23 | 103 to 104 | CN(C)Cc1cccc(OCCCNc2ncc(Cc3cccnc3)c(=O)[nH]2)c1

Row | melting point [°C] | Compound
24 | 205 to 207 | Cc1nn(CC(F)(F)F)c(C(N)=O)c1[N+](=O)[O-]
25 | 47.6 | C=CCCC[C@H]1CC[C@H](c2ccc(C(C)=O)cc2)CC1
26 | 223 to 234 | COc1ccc(OC)n2nc(N)nc12
27 | 175 to 176 | N#CC1=CC2(CCSCC2)Oc2ccc([N+](=O)[O-])cc21
28 | 257 to 258 | COc1c(OCCCC(=O)O)ccc2c1N=C(C=C(O)c1cccnc1)N1CCN=C21
29 | 129 to 130 | Cc1cc(CCC(=O)OC(C)(C)C)cc(-c2nc(=O)c3ccccc3s2)n1
30 | 127 to 130 | FC(F)(F)c1cc(Br)c2nc(C(F)(F)F)[nH]c2c1
31 | 140 to 148 | O=C1c2ccccc2C(=O)c2c1c(Oc1ccc(CCCO)cc1)c1ccc(Sc3ccccc3)cc1c2Oc1ccc(CCCO)cc1
32 | 135 to 137 | Nc1nc2c(Oc3ccccc3)cccc2s1
33 | 89 | NC(CCOS(=O)(=O)c1ccccc1)C(=O)Nc1ccccc1 (configuration not stated)
34 | 206 to 208 | COc1cc(Nc2c(-c3ccc(S(C)(=O)=O)cc3)cnn(CC(F)(F)F)c2=O)cc(C(F)(F)F)c1
35 | 123 | O=C(NCCc1ccccn1)c1ccccc1-c1ccccc1CNS(=O)(=O)c1cccc(F)c1
36 | 167 to 168 | CCOC(=O)Cn1c(=O)c2cc(OC)ccc2n(Cc2ccc(Cl)cc2Cl)c1=O
37 | 145 to 146 | NCCOc1ccc2[nH]c3ccccc3c2c1
38 | 202 to 204 | CC1NC(=O)NN=C1c1ccc(S)cc1 (configuration not stated)
39 | 185 to 186 | CC(C)Sc1cccc(-c2nc(=O)c3ccccc3s2)n1
40 | 47 to 51 | Cc1ccc2nccc(Cl)c2c1
41 | 242 to 243 | CN(c1cccc2cc(-c3ncc(CS(C)(=O)=O)s3)[nH]c12)S(=O)(=O)c1cccs1
42 | 192 to 196 | NC(=O)CCc1cc(C(=O)O)cc(S(N)(=O)=O)c1Oc1ccccc1
43 | 177 to 179 | COc1c(Br)c(-c2cc(C(C)C)n(C)n2)cc2oc(=O)c(C)c(C)c12
44 | 82 to 83 | CCOC(=O)CCCCCCCn1c(Cc2ccccc2)nc(-c2ccccc2)c1-c1ccccc1
45 | 101 to 102 | O=c1[nH]c(=O)n([C@H]2CO[C@H](CO)O2)cc1/C=C/Cl
46 | 129 to 131 | Oc1cccc2c1CCCC2CN1CCCCC1 (configuration not stated)

Row | melting point [°C] | Compound
47 | 201 to 204 | O=C1COc2ccc(Br)cc2N1O
48 | 137 to 139 | Cc1ccc(N2CCN(c3c(C)c(C)c4c(c3C)CC(C)(C)O4)CC2)cc1C
49 | 88 to 90 | CCOC(=O)c1cnn2c(C(=O)N3CCN(C(=O)OC(C)(C)C)CC3)c(Cc3cccc(F)c3C)c(-c3ccccc3)c2c1Cl
50 | 200 | COc1ccccc1N1CCN(CCn2cnc3c(c2=O)CN(Cc2ccccc2)CC3)CC1
51 | 138 | CC(C)C(=N)Nc1ccccc1N1CCOCC1
52 | 237 to 238 | Cc1cccc(-c2nc3ccc(Cl)nn3c2-c2ccnc(N)n2)c1
53 | 56 to 58 | CCCCCCCCCCCCCCCCN(CC(O)CO)C(C)=O (configuration not stated)
54 | 224 | Cc1c(-c2c(C)c3ccccc3n2S(=O)(=O)c2ccccc2)n(S(=O)(=O)c2ccccc2)c2ccccc12
55 | 147 to 149 | COc1nc2ccccc2nc1NC(=O)N1CCN(c2ccccc2)CC1
56 | 214 to 216 | CC1(C)OC(=S)Nc2ccc(-c3coc(C#N)c3)cc21
57 | 88 to 89.5 | O=C1C=C(CCCCC#CCCCC#CCO)C(=O)c2ccccc21
58 | 78.2 | CCCCCNC(=O)N(C)c1cccc(-c2ccc(C=C(OC)C(=O)O)cc2OCCOCC)c1
59 | 97 to 98 | CCOC(=O)c1cc(-c2ccc(OC)cc2)n(-c2ccc(OC)cc2)n1
60 | 70 to 71 | CCCCCCS(=O)(=O)Oc1c(I)cc(I)cc1I
61 | 80 | Clc1ccccc1C(Cl)c1ccc(-c2ccccc2)cc1 (configuration not stated)
62 | 85 to 90 | OC(c1ccc2c(c1)CCN2Cc1ccccc1)(C(F)(F)F)C(F)(F)F
63 | 155 to 157 | CCN(CC)S(=O)(=O)c1c(Cl)c(Cl)c(Cl)c2nc(C(F)(F)F)[nH]c12
64 | 222 to 224 | CC(=O)c1c(C)c(C)c(C(C)=O)c2c1C(=O)c1ccccc1C2=O
65 | 124 to 126 | Cc1c(Br)cc(S(C)(=O)=O)c(C)c1Cl
66 | 219 to 221 | CC(=O)OC1(C(=O)CCl)CCC2C3CCC4=CC(=O)CCC4(C)C3CCC21C (configuration not stated)
67 | 154 | Cc1sc(-n2cccc2C=O)c(C#N)c1C
68 | 142 to 148 | COC(=O)c1cc2cc(OC)c(OC)cc2c(-c2ccnc(-n3c(=O)cc(NCCCn4ccnc4)c4ccccc43)c2)c1C(=O)OC
69 | 118 to 120 | COCCOc1ccc(CCC(=O)NS(=O)(=O)c2ccc(OC)cc2)c(Oc2ncc(C(F)(F)F)cc2Cl)c1

Row | melting point [°C] | Compound
70 | 179 to 180 | CCOC(=O)C1=C(C(C)C)Nc2n[nH]cc2C1c1ccccc1OC (configuration not stated)
71 | 96.7 | CCCOc1ccc(C=CC(=O)c2c(O)cc(OC)cc2OC)cc1
72 | 135 to 140 | CCOC(=O)c1nc(Cc2ccccc2[N+](=O)[O-])n[nH]1
73 | 215 to 218 | CCOC(=O)c1cc2cc(Cl)c(Cl)cc2[nH]1
74 | 230 to 232 | Cc1csc2cc(C(=O)O)ccc12
75 | 243 to 245 | O=C(CN1C(=O)C2(COc3cc4c(cc32)CCO4)c2c(Cl)cccc21)Nc1ccccc1F (configuration not stated)
76 | 60 | COc1ccc(CNC(=O)C(OC)OC)cc1OC
77 | 165 to 167 | COC(=O)c1ccc2[nH]c(-c3ccc(OC)c4nc(C)ccc34)nc2c1
78 | 238 to 239 | CC1C(=O)N(Oc2ccc(F)cc2F)Cc2ccc(NC3CCOCC3)nc21 (configuration not stated)
79 | 115 to 117 | CNc1cc(C(C)=O)ccc1OCCCCl
80 | 158 to 160 | O=CNC1=NN(c2ccc(F)cc2)C(c2ccccc2)C1 (configuration not stated)
81 | 76 to 78 | CCCCCCCCCCCCCCCCCCc1c(C)[nH]c(C(=O)OCC)c1C
82 | 130 | CN1C(=O)CCc2cc(S(=O)(=O)Cl)ccc21
83 | 146 to 147 | COCCNC(=O)c1cccc(-c2cccc3c2nc(Oc2cccc(C(F)(F)F)c2)n3C)c1
84 | 174 | COCOc1ccc(C(=O)O)c(OCc2ccc(Cl)cc2Cl)c1C
85 | 77 to 78 | CCOC(=O)c1c(N)c(Cl)cc2c1OCO2
86 | > 245 | CCOc1ccc(NC=C(C#N)C(=O)Nc2cc(OC)c(Cl)cc2Cl)cc1I
87 | 171 to 173 | CCCCCCCN(CC(c1ccccc1)c1ccccc1)C(=O)Nc1c(C)cccc1C
88 | 188 to 189 | Cc1ccc(-c2c(C(=O)NCc3cc(C(F)(F)F)cc(C(F)(F)F)c3)oc(=O)c3cnccc23)cc1
89 | 149 to 150 | Cc1cc(C#CCc2ccc3c(c2)C(C)(C)CCC3(C)C)ccc1C(=O)O
90 | 160 to 162 | Cc1noc(NS(=O)(=O)c2ccccc2-c2ncccn2)c1C
91 | 168 to 170 | Cc1cc(F)ccc1-c1cc(N2CCSCC2)ncc1N(C)C(=O)C(C)(C)c1cc(C(F)(F)F)cc(C(F)(F)F)c1

Row | Compound | melting point [°C]
92 | C=CCCN(CCC=C)Cc1noc(-c2ncn3c2[C@@H]2CCN2C(=O)c2c(Cl)cccc2-3)n1 | 115 to 120
93 | CN(C)C1(c2ccccc2)CCC2(OCCc3c2[nH]c2ccc(F)cc32)C(Cc2cccc(F)c2)C1 (configuration not stated) | 133 to 135
94 | O=[N+]([O-])c1ccc(Cl)c(O)c1 | 115 to 117
95 | c1n[nH]nc1C12CCCN(CC1)C2 (configuration not stated) | 70 to 75
96 | Clc1ccc(N=C2NCCN2)c(Cl)c1Cl | 161
97 | COC(=O)c1ccc(C2=NOC(c3cc(Cl)cc(C(F)(F)F)c3)(C(F)(F)F)C2)c2ccccc12 (configuration not stated) | 112
